Here are results for 20 molecules from PubChem BioAssay AID248 (DTP/NCI, 2004).

The assay deals with L1210 leukemia ip in BDF1 mice, survival T/C. Description: NCI In Vivo Anticancer Drug Screen. Data for tumor model L1210 Leukemia (intraperitoneal) in B6D2F1 (BDF1) mice. The settings on record: endpoint: mean survival time, higher = longer survival. In short, it runs like this:
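Transplantable tumor model; survival measured in treated vs vehicle control mice. Value = treated/control.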

[1] abbreviates: dose: 100.0 mg/kg/injection, schedule: Q01DX001 (ip), vehicle: saline.
Where [2] appears, read: dose: 150.0 mg/kg/injection, schedule: Q01DX001 (ip), vehicle: saline.
The mark [3] stands for this setting: dose: 100.0 mg/kg/injection, schedule: Q04DX003 (ip), vehicle: Klucel (hydroxypropylcellulose) (HPC).
The mark [4] stands for this setting: dose: 200.0 mg/kg/injection, schedule: Q04DX003 (ip), vehicle: Klucel (hydroxypropylcellulose) (HPC).
[5] abbreviates: dose: 400.0 mg/kg/injection, schedule: Q04DX003 (ip), vehicle: Klucel (hydroxypropylcellulose) (HPC).
Setting [6] is: dose: 50.0 mg/kg/injection, schedule: Q01DX009 (ip), vehicle: saline.
Where [7] appears, read: dose: 100.0 mg/kg/injection, schedule: Q01DX009 (ip), vehicle: saline.
[8] abbreviates: dose: 100.0 mg/kg/injection, schedule: Q04DX003 (ip), vehicle: saline.
The mark [9] stands for this setting: dose: 200.0 mg/kg/injection, schedule: Q04DX003 (ip), vehicle: saline.
The mark [10] stands for this setting: dose: 400.0 mg/kg/injection, schedule: Q04DX003 (ip), vehicle: saline.
[11] abbreviates: dose: 100.0 mg/kg/injection, schedule: Q01DX009 (ip), vehicle: saline with Tween-80.
The mark [12] stands for this setting: dose: 100.0 mg/kg/injection, schedule: Q04DX003 (ip), vehicle: saline with Tween-80.
[13] abbreviates: dose: 200.0 mg/kg/injection, schedule: Q01DX009 (ip), vehicle: saline with Tween-80.
Where [14] appears, read: dose: 200.0 mg/kg/injection, schedule: Q04DX003 (ip), vehicle: saline with Tween-80.
The mark [15] stands for this setting: dose: 400.0 mg/kg/injection, schedule: Q01DX009 (ip), vehicle: saline with Tween-80.
[16] abbreviates: dose: 400.0 mg/kg/injection, schedule: Q04DX003 (ip), vehicle: saline with Tween-80.
[17] abbreviates: dose: 50.0 mg/kg/injection, schedule: Q01DX009 (ip), vehicle: Klucel (hydroxypropylcellulose) (HPC).
Where [18] appears, read: dose: 100.0 mg/kg/injection, schedule: Q01DX009 (ip), vehicle: Klucel (hydroxypropylcellulose) (HPC).
[19] abbreviates: dose: 200.0 mg/kg/injection, schedule: Q01DX009 (ip), vehicle: Klucel (hydroxypropylcellulose) (HPC).
Where [20] appears, read: dose: 200.0 mg/kg/injection, schedule: Q01DX001 (ip), vehicle: saline.
Where [21] appears, read: dose: 400.0 mg/kg/injection, schedule: Q01DX001 (ip), vehicle: saline.

Several values for one entry are separate records, joined by “and”; a condition that tells them apart may be missing. Identical values can stand only once. Inconclusive results and toxic doses are left out.

In the case of `CCCCOP(=O)(N1CC1C)N1CC1C` (stereo not drawn), the T/C is 109 % of control (dose: 6.25 mg/kg/injection, schedule: Q04DX003 (ip), vehicle: acetone); 115 % of control (dose: 12.5 mg/kg/injection, schedule: Q04DX003 (ip), vehicle: acetone); 123 % of control (dose: 25.0 mg/kg/injection, schedule: Q01DX001 (ip), vehicle: saline); 153 % of control and 168 % of control (dose: 25.0 mg/kg/injection, schedule: Q04DX003 (ip), vehicle: acetone); 163 % of control (dose: 37.5 mg/kg/injection, schedule: Q04DX003 (ip), vehicle: acetone); 164 % of control (dose: 50.0 mg/kg/injection, schedule: Q01DX001 (ip), vehicle: saline). The T/C by setting is: (dose: 66.0 mg/kg/injection, schedule: Q01DX001 (ip), vehicle: acetone) 158 % of control; (dose: 75.0 mg/kg/injection, schedule: Q04DX003 (ip), vehicle: acetone) 91 % of control; (dose: 100.0 mg/kg/injection, schedule: Q01DX001 (ip), vehicle: acetone) 169 % of control; under setting [1], 159 % of control and 192 % of control; (dose: 150.0 mg/kg/injection, schedule: Q01DX001 (ip), vehicle: acetone) 189 % of control; under setting [2], 168 % of control.
Regarding `O=c1oc2ccccc2c(Cl)c1Cl`, the T/C (dose: 10.0 mg/kg/injection, schedule: Q01DX001 (ip), vehicle: saline) is 109 % of control.
In the case of `O=c1oc2ccc(Cl)cc2c2ccccc12`, the T/C was 98 % of control under setting [3], 100 % of control under setting [4] and 104 % of control under setting [5].
Regarding `ClC12CCC(Cl)(CC1)C2(Cl)Cl`, the T/C reads like this: (dose: 25.0 mg/kg/injection, schedule: Q01DX009 (ip), vehicle: saline) 95 % of control; under setting [6], 103 % of control; under setting [7], 96 % of control; under setting [8], 98 % of control; under setting [9], 95 % of control; under setting [10], 98 % of control.
Consider `O=C(O)Cc1c[nH]c(=O)[nH]c1=O`, for which the T/C was 97 % of control under setting [11]; 102 % of control under setting [12]; 103 % of control under setting [13]; 103 % of control under setting [14]; 101 % of control under setting [15]; 92 % of control under setting [16].
With `CCn1c(=S)[nH]c(/C=N/N(CCO)CCO)c(C)c1=O`, the T/C is 103 % of control (dose: 100.0 mg/kg/injection, schedule: Q01DX001 (ip), vehicle: saline with Tween-80); 103 % of control (dose: 200.0 mg/kg/injection, schedule: Q01DX001 (ip), vehicle: saline with Tween-80); 95 % of control (dose: 400.0 mg/kg/injection, schedule: Q01DX001 (ip), vehicle: saline with Tween-80).
Consider `O=C(O)CCC1CCC(=O)NC1=O` (stereo not drawn), for which the T/C runs as follows: (dose: 25.0 mg/kg/injection, schedule: Q04DX002 (ip), vehicle: Klucel (hydroxypropylcellulose) (HPC)) 95 % of control; (dose: 50.0 mg/kg/injection, schedule: Q04DX002 (ip), vehicle: Klucel (hydroxypropylcellulose) (HPC)) 101 % of control; (dose: 100.0 mg/kg/injection, schedule: Q04DX002 (ip), vehicle: Klucel (hydroxypropylcellulose) (HPC)) 89 % of control; (dose: 200.0 mg/kg/injection, schedule: Q04DX002 (ip), vehicle: Klucel (hydroxypropylcellulose) (HPC)) 103 % of control; (dose: 400.0 mg/kg/injection, schedule: Q04DX002 (ip), vehicle: Klucel (hydroxypropylcellulose) (HPC)) 88 % of control.
Turning to `Cc1ccc(S(=O)(=O)N(C)c2ccc(C(=O)O)cc2F)cc1`, the T/C is 105 % of control (dose: 75.0 mg/kg/injection, schedule: Q01DX001 (ip), vehicle: saline); 100 % of control (dose: 75.0 mg/kg/injection, schedule: Q04DX003 (ip), vehicle: saline); 90 % of control under setting [2]; 97 % of control (dose: 150.0 mg/kg/injection, schedule: Q04DX003 (ip), vehicle: saline); 98 % of control (dose: 300.0 mg/kg/injection, schedule: Q01DX001 (ip), vehicle: saline); 97 % of control (dose: 300.0 mg/kg/injection, schedule: Q04DX003 (ip), vehicle: saline).
Consider `NC(=O)CC(NC(=O)OCc1ccccc1)C(=O)O` (stereo not drawn), for which the T/C by setting is: under setting [17], 95 % of control; under setting [18], 95 % of control; under setting [19], 109 % of control.
Turning to `CC(=O)NCCC(=O)O`, the T/C is, setting by setting: under setting [8], 95 % of control; under setting [9], 101 % of control; under setting [10], 95 % of control.
As to `O=C(NO)Nc1ccccc1`, the T/C (dose: 50.0 mg/kg/injection, schedule: Q01DX Z (ip), vehicle: carboxymethylcellulose (CMC)) was 94 % of control; the T/C under setting [11] is 98 % of control; the T/C (dose: 100.0 mg/kg/injection, schedule: Q01DX Z (ip), vehicle: carboxymethylcellulose (CMC)) was 95 % of control; the T/C under setting [12] was 95 % of control; the T/C (dose: 150.0 mg/kg/injection, schedule: Q01DX Z (ip), vehicle: methylcellulose (MC)) is 112 % of control; the T/C under setting [13] is 109 % of control. Also, the T/C reads like this: under setting [14], 96 % of control; (dose: 230.0 mg/kg/injection, schedule: Q01DX Z (ip), vehicle: methylcellulose (MC)) 97 % of control; under setting [15], 98 % of control; under setting [16], 106 % of control.
Regarding `CC1(C)CNC(=O)O1`, the T/C under setting [1] is 108 % of control, the T/C under setting [20] was 111 % of control and the T/C under setting [21] was 100 % of control.
Take `C=Cc1cnc(NC(C)=O)c(C#N)n1`: the T/C by setting is: (dose: 100.0 mg/kg/injection, schedule: Q01DX001 (ip), vehicle: Klucel (hydroxypropylcellulose) (HPC)) 103 % of control; (dose: 200.0 mg/kg/injection, schedule: Q01DX001 (ip), vehicle: Klucel (hydroxypropylcellulose) (HPC)) 100 % of control.
`C=CCOC(=O)CCCCC(=O)OCC=C`: the T/C under setting [11] is 94 % of control.
For `CCC[CH2][Sn]([CH2]CCC)([CH2]CCC)[N]=C=S`, the T/C runs as follows: (dose: 0.39 mg/kg/injection, schedule: Q01DX001 (ip), vehicle: saline with Tween-80) 89 % of control; (dose: 0.78 mg/kg/injection, schedule: Q01DX001 (ip), vehicle: saline with Tween-80) 93 % of control; (dose: 1.56 mg/kg/injection, schedule: Q01DX001 (ip), vehicle: saline with Tween-80) 105 % of control.
Regarding `Cc1cccc(NC(=O)NCCO)c1`, the T/C was 103 % of control (dose: 100.0 mg/kg/injection, schedule: Q01DX001 (ip), vehicle: carboxymethylcellulose (CMC)); 109 % of control (dose: 200.0 mg/kg/injection, schedule: Q01DX001 (ip), vehicle: carboxymethylcellulose (CMC)); 97 % of control (dose: 400.0 mg/kg/injection, schedule: Q01DX001 (ip), vehicle: carboxymethylcellulose (CMC)).
Take `CC1CCC(C(C)C)C(N(C)Cc2cc(Cl)cc(Cl)c2O)C1` (stereo not drawn): the T/C under setting [17] is 107 % of control; the T/C under setting [18] was 105 % of control; the T/C under setting [3] is 104 % of control; the T/C under setting [19] was 107 % of control; the T/C under setting [4] was 98 % of control; the T/C under setting [5] is 101 % of control.
Consider `COc1ccc(-c2ccccc2)cc1C(=O)CCC(=O)O`, for which the T/C was 100 % of control under setting [1], 96 % of control under setting [20] and 96 % of control under setting [21].
Regarding `OCCN1C(c2ccccc2)C1c1ccccc1` (stereo not drawn), the T/C reads like this: under setting [12], 102 % of control; under setting [14], 93 % of control; under setting [16], 97 % of control.
In the case of `O=S(=O)(O)CCO`, the T/C under setting [6] was 99 % of control; the T/C under setting [7] was 95 % of control; the T/C under setting [8] is 97 % of control; the T/C (dose: 200.0 mg/kg/injection, schedule: Q01DX009 (ip), vehicle: saline) is 99 % of control; the T/C under setting [9] is 101 % of control; the T/C under setting [10] was 101 % of control.
